Active and inactive are the calls of the source. No cut-off for these calls is given here.
Tests used:
Leishmania amazonensis [1] = experiment: Antileishmanial activity against extracellular promastigotes form of Leishmania amazonensis MHOM/ BR/77/LTB0016 after 24 hrs by neubauer chamber analysis; type: functional, organism-based; conditions: MHOM/ BR/77/LTB0016, 24 h
[2] = Cytotoxicity against mouse peritoneal macrophages at IC50 for Leishmania amazonensis MHOM/ BR/77/LTB0016; type: cell-based; conditions: peritoneal macrophage cell
Leishmania braziliensis = experiment: Antileishmanial activity against extracellular promastigotes form of Leishmania braziliensis MCAN/BR/97/P142 after 24 hrs by neubauer chamber analysis; type: functional, organism-based; conditions: MCAN/BR/97/P142, 24 h
Leishmania infantum = experiment: Antileishmanial activity against extracellular promastigotes form of Leishmania infantum MCAN/BR/98R619 after 24 hrs by neubauer chamber analysis; type: functional, organism-based; conditions: MCAN/BR/98R619, 24 h
Mus musculus [3] = experiment: Toxicity in CBA mouse infected with Leishmania amazonensis MHOM/ BR/77/LTB0016 assessed as change in neutrophils count at 50 mg/kg, po qd for 30 days administered 4 week post infection measured up to week 21; type: organism-based; parameters: dose 50 mg/kg, route oral; conditions: in vivo
Leishmania amazonensis [4] = experiment: Antileishmanial activity against Leishmania amazonensis MHOM/ BR/77/LTB0016 infected in CBA mouse assessed as development of cutaneous lesions at 50 mg/kg, po qd for 30 days administered 4 weeks post infection measured up to week 21; type: functional, organism-based; parameters: dose 50 mg/kg
Mus musculus [5] = experiment: Toxicity in CBA mouse infected with Leishmania amazonensis MHOM/ BR/77/LTB0016 assessed as change in monocytes count at 50 mg/kg, po qd for 30 days administered 4 week post infection measured up to week 21; type: organism-based; parameters: dose 50 mg/kg, route oral; conditions: in vivo
Mus musculus [6] = experiment: Toxicity in CBA mouse infected with Leishmania amazonensis MHOM/ BR/77/LTB0016 assessed as change in leukocytes count at 50 mg/kg, po qd for 30 days administered 4 week post infection measured up to week 21; type: organism-based; parameters: dose 50 mg/kg, route oral; conditions: in vivo
Mus musculus [7] = experiment: Toxicity in CBA mouse infected with Leishmania amazonensis MHOM/ BR/77/LTB0016 assessed as weight loss at 50 mg/kg, po qd for 30 days administered 4 week post infection measured up to week 21; type: organism-based; parameters: dose 50 mg/kg, route oral; conditions: in vivo
Mus musculus [8] = experiment: Toxicity in CBA mouse infected with Leishmania amazonensis MHOM/ BR/77/LTB0016 assessed as weight loss at 29 to 100 umol/kg, po qd for 30 days administered 4 week post infection measured up to week 21; type: organism-based; conditions: in vivo
Mus musculus [9] = experiment: Hepatotoxicity in CBA mouse infected with promastigotes form of Leishmania amazonensis MHOM/ BR/77/LTB0016 assessed as change in AST level at 100 umol/kg, po qd for 30 days administered 4 week post infection measured up to week 21; type: toxicity, organism-based; conditions: in vivo
Leishmania amazonensis [10] = experiment: Antileishmanial activity against Leishmania amazonensis MHOM/ BR/77/LTB0016 infected in CBA mouse assessed as development of cutaneous lesions at 100 umol/kg, po qd for 30 days administered 4 weeks post infection measured up to week 21; type: functional, organism-based
Mus musculus [11] = experiment: Hepatotoxicity in CBA mouse infected with promastigotes form of Leishmania amazonensis MHOM/ BR/77/LTB0016 assessed as change in ALT level at 100 umol/kg, po qd for 30 days administered 4 week post infection measured up to week 21; type: toxicity, organism-based; conditions: in vivo
Mus musculus [12] = experiment: Toxicity in CBA mouse infected with Leishmania amazonensis MHOM/ BR/77/LTB0016 assessed as change in leukocytes count at 100 umol/kg, po qd for 30 days administered 4 week post infection measured up to week 21; type: organism-based; conditions: in vivo
Mus musculus [13] = experiment: Toxicity in CBA mouse infected with Leishmania amazonensis MHOM/ BR/77/LTB0016 assessed as change in neutrophils count at 100 umol/kg, po qd for 30 days administered 4 week post infection measured up to week 21; type: organism-based; conditions: in vivo
Mus musculus [14] = experiment: Renal toxicity in CBA mouse infected with promastigotes form of Leishmania amazonensis MHOM/ BR/77/LTB0016 assessed as change in creatinine level at 100 umol/kg, po qd for 30 days administered 4 week post infection measured up to week 21; type: organism-based; conditions: in vivo
Mus musculus [15] = experiment: Toxicity in CBA mouse infected with Leishmania amazonensis MHOM/ BR/77/LTB0016 assessed as change in monocytes count at 100 umol/kg, po qd for 30 days administered 4 week post infection measured up to week 21; type: organism-based; conditions: in vivo

SMILES	IC50 (Leishmania amazonensis [1])	Activity [2]	IC50 (Leishmania braziliensis)	IC50 (Leishmania infantum)	other results
Nc1c(C2=NCCN2)cnn1-c1ccc(Cl)c(Cl)c1	381 µM	15.5%			
Nc1c(C2=NCCN2)cnn1-c1cccc(F)c1	> 500 µM		> 500 µM	> 500 µM	
Clc1cccc(-n2cc(C3=NCCN3)cn2)c1	60 µM	6.46%	> 500 µM	> 500 µM	
Nc1c(C2=NCCN2)cnn1-c1cccc(Cl)c1	> 500 µM	15.2%	> 500 µM	> 500 µM	
Nc1c(C2=NCCN2)cnn1-c1cccc(Br)c1	31.3 µM				
CC(=O)N1CCN(c2ccc(OCC3COC(Cn4ccnc4)(c4ccc(Cl)cc4Cl)O3)cc2)CC1 (centres undefined) [KETOCONAZOLE]					Activity (Mus musculus [3]): Non-toxic; Activity (Leishmania amazonensis [4]): Active; Activity (Mus musculus [5]): Non-toxic; Activity (Mus musculus [6]): Non-toxic; Activity (Mus musculus [7]): Non-toxic
Nc1c(C2=NCCN2)cnn1-c1cc(Cl)cc(Cl)c1	15.5 µM		437 µM	> 500 µM	Activity (Mus musculus [8]): Non-toxic; Activity (Mus musculus [9]): Non-toxic; Activity (Leishmania amazonensis [10]): Active; Activity (Mus musculus [11]): Non-toxic; Activity (Mus musculus [12]): Non-toxic; Activity (Mus musculus [13]): Non-toxic; Activity (Mus musculus [14]): Non-toxic; Activity (Mus musculus [15]): Non-toxic
Brc1ccc(-n2cc(C3=NCCN3)cn2)cc1	30 µM	3.52%		> 500 µM	
N=C(N)c1ccc(OCCCCCOc2ccc(C(=N)N)cc2)cc1 [PENTAMIDINE]	10 µM	31%	50 µM	100 µM	
Nc1c(C2=NCCN2)cnn1-c1ccccc1	365 µM		433 µM	> 500 µM	
c1ccc(-n2cc(C3=NCCN3)cn2)cc1	43 µM	11.26%	> 500 µM	> 500 µM	
Clc1ccc(-n2cc(C3=NCCN3)cn2)cc1Cl	297 µM	5.32%		> 500 µM	
Brc1cccc(-n2cc(C3=NCCN3)cn2)c1	> 500 µM	11.98%		> 500 µM	
Clc1cc(Cl)cc(-n2cc(C3=NCCN3)cn2)c1	> 500 µM	3.97%	459 µM	> 500 µM	
Nc1c(C2=NCCN2)cnn1-c1ccc(Br)cc1	> 500 µM		272 µM	> 500 µM	
Fc1cccc(-n2cc(C3=NCCN3)cn2)c1	54 µM			> 500 µM	
